What was measured:
Details in all cases: 48 h
SEM cells [1] = experiment: cell viability relative to DMSO control; higher = less cytotoxic
Method in brief: (§1)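 In 1536-well plates, 5 μl of leukemia cells were seeded per well: 500 cells/well for NOMO1 or SEM and 1000 cells/well for P12-Ichikawa. Each line had first been adapted for at least four passages in each medium. Library compounds in DMSO were pin-dosed at 11 threefold concentrations between 47 μM and 0.79 nM, and CellTiter-Glo One luminescence was read after 48 h at 37°C. Viability is a per-plate percentage relative to DMSO wells, with cell-free wells as background.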

NOMO1 [2] = experiment: as above
Method in brief: as §1

P12-Ichikawa [3] = experiment: as above
Method in brief: as §1

SEM cells [4] = experiment: AUC of viability dose-response curve (% viability x log10 dose units); higher = less sensitive
Method in brief: (§2)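 Area under the curve was integrated by trapezoidal rule from a log-logistic fit of normalised viability, with curves exceeding full viability scaled and quality-control failures removed. The fit had four parameters over log10 doses. Viability came from CellTiter-Glo One luminescence, normalised per plate to DMSO and cell-free wells, after leukemia cells adapted to each medium (500 or 1000 cells/well, 1536-well plates) were exposed to library compounds in DMSO for 48 h at 37°C. The 11 threefold doses ran from 47 μM to 0.79 nM.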

NOMO1 [5] = experiment: as above
Method in brief: as §2

P12-Ichikawa [6] = experiment: as above
Method in brief: as §2

CC(C)Oc1ccc(C(=O)N[C@H](CNC(=O)CN(C)C)Cc2ccc(-c3cn4cccc([C@H](C)O)c4n3)cc2)cc1Cl
cell viability [%]
Details	NOMO1 [2]	P12-Ichikawa [3]	SEM cells [1]
HPLM + 10% dialyzed FBS, 0.000781 µM	123	121	116
HPLM + 10% dialyzed FBS, 0.00234 µM	131	115	129
HPLM + 10% dialyzed FBS, 0.00702 µM	108	118	112
HPLM + 10% dialyzed FBS, 0.0211 µM	123	115	109
HPLM + 10% dialyzed FBS, 0.0632 µM	103	106	118
HPLM + 10% dialyzed FBS, 0.19 µM	99.8	101	118
HPLM + 10% dialyzed FBS, 0.569 µM	113	107	102
HPLM + 10% dialyzed FBS, 1.71 µM	32.6	78.1	44.5
HPLM + 10% dialyzed FBS, 5.12 µM	33.1	48.3	33.5
HPLM + 10% dialyzed FBS, 15.4 µM	23.6	45.8	39.9
HPLM + 10% dialyzed FBS, 46.1 µM	32.5	54.2	48.5
RPMI 5 mM glucose + 10% FBS, 0.000781 µM	104	117	–
RPMI 5 mM glucose + 10% FBS, 0.00234 µM	107	120	–
RPMI 5 mM glucose + 10% FBS, 0.00702 µM	112	118	–
RPMI 5 mM glucose + 10% FBS, 0.0211 µM	113	111	–
RPMI 5 mM glucose + 10% FBS, 0.0632 µM	113	115	–
RPMI 5 mM glucose + 10% FBS, 0.19 µM	98.5	110	–
RPMI 5 mM glucose + 10% FBS, 0.569 µM	87	103	–
RPMI 5 mM glucose + 10% FBS, 1.71 µM	24.8	41.2	–
RPMI 5 mM glucose + 10% FBS, 5.12 µM	19.7	25.3	–
RPMI 5 mM glucose + 10% FBS, 15.4 µM	14.6	23	–
RPMI 5 mM glucose + 10% FBS, 46.1 µM	21.6	26.6	–
RPMI 5 mM glucose + 10% dialyzed FBS, 0.000781 µM	107	108	117
RPMI 5 mM glucose + 10% dialyzed FBS, 0.00234 µM	124	117	119
RPMI 5 mM glucose + 10% dialyzed FBS, 0.00702 µM	112	112	117
RPMI 5 mM glucose + 10% dialyzed FBS, 0.0211 µM	125	110	125
RPMI 5 mM glucose + 10% dialyzed FBS, 0.0632 µM	113	102	111
RPMI 5 mM glucose + 10% dialyzed FBS, 0.19 µM	109	101	111
RPMI 5 mM glucose + 10% dialyzed FBS, 0.569 µM	100	97.9	111
RPMI 5 mM glucose + 10% dialyzed FBS, 1.71 µM	39.4	63	38.2
RPMI 5 mM glucose + 10% dialyzed FBS, 5.12 µM	25.6	38.4	34.4
RPMI 5 mM glucose + 10% dialyzed FBS, 15.4 µM	20.1	31.6	29.4
RPMI 5 mM glucose + 10% dialyzed FBS, 46.1 µM	24.8	32.7	35.5

AUC of viability dose-response curve
Details	NOMO1 [5]	P12-Ichikawa [6]	SEM cells [4]
HPLM + 10% dialyzed FBS	354	394	363
RPMI 5 mM glucose + 10% FBS	331	348	346
RPMI 5 mM glucose + 10% dialyzed FBS	344	369	357

CC(C)(C)[C@H](NC(=O)c1ccc(N)c(Cl)c1)C(=O)N1CCC[C@H]1C(=O)N[C@H](C#N)CC(=O)O
cell viability [%]
Details	NOMO1 [2]	P12-Ichikawa [3]	SEM cells [1]
HPLM + 10% dialyzed FBS, 0.000781 µM	–	121	99.5
HPLM + 10% dialyzed FBS, 0.00234 µM	–	126	105
HPLM + 10% dialyzed FBS, 0.00702 µM	–	123	109
HPLM + 10% dialyzed FBS, 0.0211 µM	–	127	129
HPLM + 10% dialyzed FBS, 0.0632 µM	–	131	127
HPLM + 10% dialyzed FBS, 0.19 µM	–	127	125
HPLM + 10% dialyzed FBS, 0.569 µM	–	130	113
HPLM + 10% dialyzed FBS, 1.71 µM	–	126	113
HPLM + 10% dialyzed FBS, 5.12 µM	–	32.8	123
HPLM + 10% dialyzed FBS, 15.4 µM	–	14.4	140
HPLM + 10% dialyzed FBS, 46.1 µM	–	10.8	130
RPMI 5 mM glucose + 10% FBS, 0.000781 µM	113	116	107
RPMI 5 mM glucose + 10% FBS, 0.00234 µM	126	124	107
RPMI 5 mM glucose + 10% FBS, 0.00702 µM	112	130	129
RPMI 5 mM glucose + 10% FBS, 0.0211 µM	118	133	118
RPMI 5 mM glucose + 10% FBS, 0.0632 µM	120	126	118
RPMI 5 mM glucose + 10% FBS, 0.19 µM	126	139	124
RPMI 5 mM glucose + 10% FBS, 0.569 µM	116	133	115
RPMI 5 mM glucose + 10% FBS, 1.71 µM	30	133	120
RPMI 5 mM glucose + 10% FBS, 5.12 µM	23	49.9	100
RPMI 5 mM glucose + 10% FBS, 15.4 µM	22.7	22.6	134
RPMI 5 mM glucose + 10% FBS, 46.1 µM	20.6	15.5	110
RPMI 5 mM glucose + 10% dialyzed FBS, 0.000781 µM	–	108	116
RPMI 5 mM glucose + 10% dialyzed FBS, 0.00234 µM	–	123	101
RPMI 5 mM glucose + 10% dialyzed FBS, 0.00702 µM	–	121	117
RPMI 5 mM glucose + 10% dialyzed FBS, 0.0211 µM	–	133	111
RPMI 5 mM glucose + 10% dialyzed FBS, 0.0632 µM	–	131	117
RPMI 5 mM glucose + 10% dialyzed FBS, 0.19 µM	–	130	116
RPMI 5 mM glucose + 10% dialyzed FBS, 0.569 µM	–	133	117
RPMI 5 mM glucose + 10% dialyzed FBS, 1.71 µM	–	127	118
RPMI 5 mM glucose + 10% dialyzed FBS, 5.12 µM	–	102	117
RPMI 5 mM glucose + 10% dialyzed FBS, 15.4 µM	–	52.1	123
RPMI 5 mM glucose + 10% dialyzed FBS, 46.1 µM	–	16.7	125

AUC of viability dose-response curve
Details	NOMO1 [5]	P12-Ichikawa [6]	SEM cells [4]
HPLM + 10% dialyzed FBS	359	377	429
RPMI 5 mM glucose + 10% FBS	343	387	470
RPMI 5 mM glucose + 10% dialyzed FBS	354	419	451
